# From ChEMBL document CHEMBL5728291, “Pyrazole MAGL inhibitors” (2021)
# Target: T1, Monoglyceride lipase (Homo sapiens, UniProt Q99685)
# T1 sequence (Q99685 whole entry): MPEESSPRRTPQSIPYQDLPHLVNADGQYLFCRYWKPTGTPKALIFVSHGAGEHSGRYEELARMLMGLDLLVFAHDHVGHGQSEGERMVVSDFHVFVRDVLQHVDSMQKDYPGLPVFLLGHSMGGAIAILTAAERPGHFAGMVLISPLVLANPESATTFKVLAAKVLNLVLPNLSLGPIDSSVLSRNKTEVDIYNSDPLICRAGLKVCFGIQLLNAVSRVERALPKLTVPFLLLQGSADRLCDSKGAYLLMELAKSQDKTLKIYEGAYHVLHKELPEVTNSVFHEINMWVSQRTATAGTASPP
# Experiment: In Vitro Competitive Activity-Based Protein Profiling: Proteomes (mouse brain membrane fraction for mouse assays; human prefrontal cortex membrane fractions for human assays) (50 mL, 1.0 mg/mL total protein concentration) were preincubated with varying concentrations of inhibitors at 37° C. After 30 min, FP-Rh (1.0 mL, 50 mM in DMSO) was added and the mixture was incubated for another 30 min at 37° C.
smiles,measurement,value
O=C(O)c1ccn(C(=O)N2C[C@H]3C[C@H](Oc4cc(Cl)ccc4C(F)(F)F)C[C@H]3C2)n1,IC50,< 100 nM
